These compounds were tested against T1, ERR1 (also known as ERR-α or ERR-1) (Homo sapiens, UniProt P11474) (assay: TR-FRET assay: disruption of co-activator peptide binding to ERR1 LBD). Details: 6His-tagged ERR1 LBD 6 nM, GST-SRC-2 peptide 6 nM, 25° C., 4-18 hours; average of 3 independent experiments.
T1 construct: the ^6His-tagged-ERR1 LBD
T1 sequence (P11474 193-421 limits assumed): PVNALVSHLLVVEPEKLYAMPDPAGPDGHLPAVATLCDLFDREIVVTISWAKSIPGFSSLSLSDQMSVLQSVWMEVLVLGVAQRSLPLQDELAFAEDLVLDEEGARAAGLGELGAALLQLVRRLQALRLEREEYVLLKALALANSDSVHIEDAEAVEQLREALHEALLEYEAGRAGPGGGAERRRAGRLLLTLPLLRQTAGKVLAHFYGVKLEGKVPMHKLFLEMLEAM
Format: biochemical
Protocol: Time-Resolved Fluorescence Resonance Energy Transfer (TR-FRET) experiments were performed to examine the functional response of ERR1 (also known as ERR-α or ERR-1) ligands. The TR-FRET assay described herein relied on the conformation of ERR1 for binding to a co-activator peptide: when a test compound binds to ERR1 and alters its conformation, it can disrupt the binding of the co-activator peptide. The components of this homogeneous secondary assay included: the ^6His-tagged-ERR1 LBD, a GST-labeled-hSRC2 co-activator polypeptide and a fluorescent donor/acceptor pair from CIS bio international htrf/bioassays (Bedford, Mass.) using both an α-GST Europium Cryptate (Eu) label and an α^6His-XL665 (allophycocyanin) fluorophore.
For TR-FRET measurements, the reaction was buffered in 25 mM Tris pH 8, 2.5 mM Hepes, 20 mM KCl, 1 mM DTT, and 0.05 mg/mL BSA (-lipids). […] Reactions were allowed to reach equilibrium at 25° C. for 4-18 hours before collecting data on the Analyst from LJL Biosystems (Molecular Devices Sunnyvale, Calif.). […] Dose response curves were fitted using a hyperbolic equation and the data reported is the average of 3 independent experiments.

SMILES | EC50 [nM]
COC(=O)CC1CCN(C2=NC(=O)/C(=C/c3ccc(Oc4ccc(C#N)cc4C(F)(F)F)c(OC)c3)S2)CC1 [Example 83, (1-{5-[4-(4-Cyano-2-trifluoromethyl-phenoxy)-3-methoxy-benzylidene]-4-oxo-4,5-dihydro-thiazol-2-yl}-piperidin-4-yl)-acetic acid methyl ester] | 26
COc1cc(/C=C2\SC(NCC(F)F)=NC2=O)ccc1Oc1ccc(C#N)cc1C(F)(F)F [Example 92, 4-{4-[2-(2,2-Difluoro-ethylamino)-4-oxo-4H-thiazol-5-ylidenemethyl]-2-methoxy-phenoxy}-3-trifluoromethyl-benzonitrile] | 6
N#Cc1ccc(Oc2ccc(/C=C3\SC(N4CCCC(O)C4)=NC3=O)cc2F)c(C(F)(F)F)c1 (stereo not shown) [Example 103, 4-{2-Fluoro-4-[2-(3-hydroxy-piperidin-1-yl)-4-oxo-4H-thiazol-5-ylidenemethyl]-phenoxy}-3-trifluoromethyl-benzonitrile] | 47
COc1cc(/C=C2\SC(N(C)CCN(C)C)=NC2=O)ccc1Oc1ccc(C#N)cc1C(F)(F)F [Compound 11, 4-(4-{2-[(2-Dimethylamino-ethyl)-methyl-amino]-4-oxo-4H-thiazol-5-ylidenemethyl}-2-methoxy-phenoxy)-3-trifluoromethyl-benzonitrile] | 19
COc1cc(/C=C2\SC(NCCc3cccnc3)=NC2=O)ccc1Oc1ccc(C#N)cc1C(F)(F)F [Example 29, 4-{2-Methoxy-4-[4-oxo-2-(2-pyridin-3-yl-ethylamino)-4H-thiazol-5-ylidenemethyl]-phenoxy}-3-trifluoromethyl-benzonitrile] | 12
COc1cc(/C=C2\SC(N3CC(C(=O)O)C3)=NC2=O)ccc1Oc1ccc(C#N)cc1C(F)(F)F [Example 106, 1-{5-[4-(4-Cyano-2-trifluoromethyl-phenoxy)-3-methoxy-benzylidene]-4-oxo-4,5-dihydro-thiazol-2-yl}-azetidine-3-carboxylic acid] | 3
COCCNC1=NC(=O)/C(=C/c2ccc(Oc3ccc(C#N)cc3C(F)(F)F)c(OC)c2)S1 [Compound 18, 4-{2-Methoxy-4-[2-(2-methoxy-ethylamino)-4-oxo-4H-thiazol-5-ylidenemethyl]-phenoxy}-3-trifluoromethyl-benzonitrile] | 112
COC(=O)[C@H](CO)NC1=NC(=O)/C(=C/c2ccc(Oc3ccc(C#N)cc3C(F)(F)F)c(OC)c2)S1 [Example 68, 2-{5-[4-(4-Cyano-2-trifluoromethyl-phenoxy)-3-methoxy-benzylidene]-4-oxo-4,5-dihydro-thiazol-2-ylamino}-3-hydroxy-propionic acid methyl ester] | 19
COc1cc(/C=C2\SC(NCCn3ccnc3)=NC2=O)ccc1Oc1ccc(C#N)cc1C(F)(F)F [Example 70, 4-{4-[2-(2-Imidazol-1-yl-ethylamino)-4-oxo-4H-thiazol-5-ylidenemethyl]-2-methoxy-phenoxy}-3-trifluoromethyl-benzonitrile] | 24
CCOc1cc(/C=C2\SC(N3CCNC(=O)C3)=NC2=O)ccc1Oc1ccc(C#N)cc1C(F)(F)F [Example 57, 4-{2-Ethoxy-4-[4-oxo-2-(3-oxo-piperazin-1-yl)-4H-thiazol-5-ylidenemethyl]-phenoxy}-3-trifluoromethyl-benzonitrile] | 39
CN(CC(O)CO)C1=NC(=O)/C(=C/c2ccc(Oc3ccc(C#N)cc3C(F)(F)F)c(F)c2)S1 (stereo not shown) [Example 50, 4-(4-{2-[(2,3-Dihydroxy-propyl)-methyl-amino]-4-oxo-4H-thiazol-5-ylidenemethyl}-2-fluoro-phenoxy)-3-trifluoromethyl-benzonitrile] | 12
COc1cc(/C=C2\SC(NCCCN(C)C)=NC2=O)ccc1Oc1ccc(C#N)cc1C(F)(F)F [Compound 26, 4-{4-[2-(3-Dimethylamino-propylamino)-4-oxo-4H-thiazol-5-ylidenemethyl]-2-methoxy-phenoxy}-3-trifluoromethyl-benzonitrile] | 13
CCOc1cc(/C=C2\SC(N3CC(C(=O)O)C3)=NC2=O)ccc1Oc1ccc(C#N)cc1C(F)(F)F [Example 55, 1-{5-[4-(4-Cyano-2-trifluoromethyl-phenoxy)-3-ethoxy-benzylidene]-4-oxo-4,5-dihydro-thiazol-2-yl}-azetidine-3-carboxylic acid] | 16
COC(=O)c1ccc(Oc2ccc(/C=C3\SC(N4CCC(C(=O)OC)CC4)=NC3=O)cc2OC)c(C(F)(F)F)c1 [Example 113, 1-{5-[3-Methoxy-4-(4-methoxycarbonyl-2-trifluoromethyl-phenoxy)-benzylidene]-4-oxo-4,5-dihydro-thiazol-2-yl}-piperidine-4-carboxylic acid methyl ester] | 14
COc1cc(/C=C2\SC(N(CCO)CCO)=NC2=O)ccc1Oc1ccc(C#N)cc1C(F)(F)F [Compound 12, 4-(4-{2-[Bis-(2-hydroxy-ethyl)-amino]-4-oxo-4H-thiazol-5-ylidenemethyl}-2-methoxy-phenoxy)-3-trifluoromethyl-benzonitrile] | 25
COc1cc(/C=C2\SC(N3CC(C)OC(C)C3)=NC2=O)ccc1Oc1ccc(C#N)cc1C(F)(F)F (stereo not shown) [Example 40, 4-{4-[2-(2,6-Dimethyl-morpholin-4-yl)-4-oxo-4H-thiazol-5-ylidenemethyl]-2-methoxy-phenoxy}-3-trifluoromethyl-benzonitrile] | 7
COc1cc(/C=C2\SC(NCCN3CCCC3)=NC2=O)ccc1Oc1ccc(C#N)cc1C(F)(F)F [Compound 20, 4-{2-Methoxy-4-[4-oxo-2-(2-pyrrolidin-1-yl-ethylamino)-4H-thiazol-5-ylidenemethyl]-phenoxy}-3-trifluoromethyl-benzonitrile] | 32
COC(=O)c1ccc(Oc2ccc(/C=C3\SC(N4CCCC(O)C4)=NC3=O)cc2OC)c(C(F)(F)F)c1 (stereo not shown) [Example 53, 4-{4-[2-(3-Hydroxy-piperidin-1-yl)-4-oxo-4H-thiazol-5-ylidenemethyl]-2-methoxy-phenoxy}-3-trifluoromethyl-benzoic acid methyl ester] | 42
N#Cc1ccc(Oc2ccc(/C=C3\SC(N)=NC3=O)cc2Cl)c(C(F)(F)F)c1 [Compound 3, 4-[2-Chloro-4-(2-imino-4-oxo-thiazolidin-5-ylidenemethyl)-phenoxy]-3-trifluoromethyl-benzonitrile] | 87
COC(=O)C1CCN(C2=NC(=O)/C(=C/c3ccc(Oc4ccc(C#N)cc4C(F)(F)F)c(OC)c3)S2)CC1 [Example 79, 1-{5-[4-(4-Cyano-2-trifluoromethyl-phenoxy)-3-methoxy-benzylidene]-4-oxo-4,5-dihydro-thiazol-2-yl}-piperidine-4-carboxylic acid methyl ester] | 25
COc1cc(/C=C2\SC(NCCF)=NC2=O)ccc1Oc1ccc(C#N)cc1C(F)(F)F [Example 91, 4-{4-[2-(2-Fluoro-ethylamino)-4-oxo-4H-thiazol-5-ylidenemethyl]-2-methoxy-phenoxy}-3-trifluoromethyl-benzonitrile] | 9
COc1cc(/C=C2\SC(NCCN3CCCC3=O)=NC2=O)ccc1Oc1ccc(C#N)cc1Cl [Example 63, 3-Chloro-4-(2-methoxy-4-{4-oxo-2-[2-(2-oxo-pyrrolidin-1-yl)-ethylamino]-4H-thiazol-5-ylidenemethyl}-phenoxy)-benzonitrile] | 75

From US8580832B2, “Substituted phenoxy aminothiazolones as estrogen related receptor-α modulators” (Janssen Pharmaceutica N.V., priority 2007, dated 2013)
